Test results as given in patent US20240350522A1, “HYGROMYCIN A FOR TREATMENT OF DISEASES AND INFECTIONS” (FLIGHTPATH BIOSCIENCES, INC., priority 2021, published 2024).
Several values for one entry are separate records, joined by “and”; a condition that tells them apart may be missing. Identical values can stand only once. Like-named read-outs stand apart in the source and are kept apart here.

How the values were obtained:
[1] = test system: F. nucleatum fusiforme; test: Kirby-Bauer diffusion assay; assay type: cell-based; conditions: Fusobacterium nucleatum, strain 203L30, mean (SEM), read-out: size of zone inhibition (mm)
Experimental: Three representatives of 6 subspecies of Fusobacterium nucleatum (F. nucleatum) for a total of 18 strains were tested in the experiment. The sub species and strains are described in Table 2.
All strains were verified by 16S V3/V6 sequence analysis prior to use. The methods described herein were performed in an anaerobic chamber at 37° C. All media and plates were degassed prior to use.
Hygromycin A (Hyg A) discs were prepared by solubilizing Hyg A in distilled water and sterile filtered. Clindamycin was used as a positive control. Defined amounts of hygromycin A (40, 20, 10 or 5 micrograms), clindamycin (2 micrograms) or sterile distilled water were absorbed onto Kirby-Bauer discs in a biosafety cabinet.
An overnight culture was grown in Wilkins-Chalgren (WC) broth and back-diluted 1:10 in fresh broth. When an OD 600 reading reached 0.5, 300 μL of the log phase culture was plated onto WC agar plates. The plates were sectioned into quadrants and a Kirby-Bauer (KB) disc impregnated with a defined amount of hygromycin A was placed in each quadrant. Plates were prepared thus in triplicate and the four amounts of hygromycin A were 40, 20 10 and 5 micrograms. The same volume of culture was spread on fourth plate sectioned into six sections for three positive and three negative controls. KB discs with water served as negative controls and KB discs impregnated with 2 micrograms of clindamycin served as positive controls. […] Table 3, Table 4, Table 5, Table 6, Table 7, Table 8 show the mean size of zone inhibitions for each of the subspecies tested using increasing concentrations of hygromycin A where the standard error of mean is represented in parenthesis.
The amount of hygromycin A was plotted against the size of the zone of inhibition for each strain tested.

[2] = test system: Porphyromonas gingivalis (ATCC 33277); test: MBC of Hyg A against P. gingivalis; assay type: cell-based
[3] = test system: SF1Ep cells; test: Cytotoxicity assay, Cell Proliferation Reagent WST-1; assay type: cell-based, rabbit; conditions: day 7; any concentration tested (0.03-3.84 μg/mL)
Experimental: Cytotoxicity assay was performed according to the Cell Proliferation Reagent WST-1 protocol (Attached; Roche, Basel, Switzerland). Absorbance was measured after 1 hour incubation with the reagent.

[4] = test system: Treponema denticola; test: MIC of Hyg A against Treponema denticola strains (broth dilution, phenol red); assay type: cell-based; conditions: for MIC: Treponema denticola
[5] = test system: Treponema pallidum pallidum SS14 strain; test: T. pallidum susceptibility assay, co-culture with Sf1Ep cells, tp0574 (T47) qPCR after 7 days; assay type: cell-based; conditions: for Mean T47 copies/μL, Average / Mean T47 copies/μL, experimental values: 7 days; for Mean T47 copies/μL, Average: average of 8 replicates; for Mean T47 copies/μL, experimental values: replicate wells
[6] = test system: Porphyromonas gingivalis (ATCC 33277); test: MIC of Hyg A against P. gingivalis (OD600, dark field microscopy); assay type: cell-based

CC(=O)[C@H]1O[C@@H](Oc2ccc(/C=C(\C)C(=O)N[C@@H]3[C@H](O)[C@@H](O)[C@H]4OCO[C@H]4[C@@H]3O)cc2O)[C@@H](O)[C@@H]1O [Hyg A, Hygromycin A]
zone of inhibition at 10 µg/disc ([1]; Hyg A 10 μg per disc): 24.3 mm
zone of inhibition at 20 µg/disc ([1]; Hyg A 20 μg per disc): 28 mm
zone of inhibition at 40 µg/disc ([1]; Hyg A 40 μg per disc): 30 mm
MBC ([2]; ATCC33277, P. gingivalis 33277, experiment 1, read-out: MBC (μg/ml) 1): > 5 µg/mL
MBC ([2]; ATCC33277, P. gingivalis 33277, experiment 2, read-out: MBC (μg/ml) 2): > 5 µg/mL
toxicity to SF1Ep cells (WST-1) [3]: not toxic
MIC ([4]; ATCC35404, ATCC 35404, strain most tolerant, read-out: MIC): 5 µg/mL
MIC ([4]; ATCC35404, ATCC strain 35404, range, read-out: MIC): 0.5 to 5 µg/mL
MIC ([4]; ATCC35405, Type strain ATCC 35405, read-out: MIC): 0.2 µg/mL
MIC ([4]; T. denticola 33520, experiment 1, read-out: MIC (μg/ml) 1): 1 µg/mL
MIC ([4]; T. denticola 33520, experiment 2, read-out: MIC (μg/ml) 2): 1 µg/mL
MIC ([4]; T. denticola 33521, experiment 1, read-out: MIC (μg/ml) 1): 0.5 µg/mL
MIC ([4]; T. denticola 33521, experiment 2, read-out: MIC (μg/ml) 2): 2 µg/mL
MIC ([4]; T. denticola 35404, experiment 1, read-out: MIC (μg/ml) 1): 0.5 to 1 µg/mL
MIC ([4]; T. denticola 35404, experiment 2, read-out: MIC (μg/ml) 2): 5 µg/mL
MIC ([4]; T. denticola 35405, experiment 1, read-out: MIC (μg/ml) 1): 0.2 µg/mL
MIC ([4]; T. denticola 35405, experiment 2, read-out: MIC (μg/ml) 2): 0.2 µg/mL
MIC ([4]; T. denticola ASLM, experiment 1, read-out: MIC (μg/ml) 1): 0.5 µg/mL
MIC ([4]; T. denticola ASLM, experiment 2, read-out: MIC (μg/ml) 2): 1 µg/mL
MIC ([4]; T. denticola H1-T, experiment 1, read-out: MIC (μg/ml) 1): 0.5 µg/mL
MIC ([4]; T. denticola H1-T, experiment 2, read-out: MIC (μg/ml) 2): 0.5 µg/mL
MIC ([4]; T. denticola OTK, experiment 1, read-out: MIC (μg/ml) 1): 0.5 µg/mL
MIC ([4]; T. denticola OTK, experiment 2, read-out: MIC (μg/ml) 2): 1 µg/mL
MIC ([4]; T. denticola SP44, experiment 1, read-out: MIC (μg/ml) 1): 1 µg/mL
MIC ([4]; T. denticola SP44, experiment 2, read-out: MIC (μg/ml) 2): 1 µg/mL
MIC ([4]; T. denticola US Trep, experiment 1, read-out: MIC (μg/ml) 1): 0.5 µg/mL
MIC ([4]; T. denticola US Trep, experiment 2, read-out: MIC (μg/ml) 2): 0.5 µg/mL
MIC ([4]; across T. denticola strains, read-out: MIC values for Treponema denticola strains, typical): ~0.5 µg/mL
MIC ([4]; low passage clinical isolate ASLM, read-out: MIC (Hyg A sensitivity)): 0.2 µg/mL
MIC ([4]; low passage clinical isolate SP44, read-out: MIC (Hyg A sensitivity)): 1 µg/mL
MIC values for Treponema denticola strains, range ([4]; across T. denticola strains): 0.2 to 1.0 µg/mL
Mean T47 copies/μL, Average ([5]; Hyg A 0.03 μg/ml): 2768 copies/μL
Mean T47 copies/μL, Average ([5]; Hyg A 0.06 μg/ml): 916 copies/μL
Mean T47 copies/μL, experimental values ([5]; Hyg A 0.06 μg/ml): 713 copies/μL and 883 copies/μL and 851 copies/μL and 1260 copies/μL
Mean T47 copies/μL, Average ([5]; Hyg A 0.12 μg/ml): 737 copies/μL
Mean T47 copies/μL, experimental values ([5]; Hyg A 0.12 μg/ml): 372 copies/μL and 629 copies/μL and 710 copies/μL and 787 copies/μL and 926 copies/μL and 951 copies/μL and 965 copies/μL and 552 copies/μL
Mean T47 copies/μL, Average ([5]; Hyg A 0.24 μg/ml): 516 copies/μL
Mean T47 copies/μL, experimental values ([5]; Hyg A 0.24 μg/ml): 510 copies/μL and 491 copies/μL and 572 copies/μL and 587 copies/μL and 564 copies/μL and 600 copies/μL and 441 copies/μL and 360 copies/μL
Mean T47 copies/μL, Average ([5]; Hyg A 0.48 μg/ml): 426 copies/μL
Mean T47 copies/μL, experimental values ([5]; Hyg A 0.48 μg/ml): 327 copies/μL and 435 copies/μL and 503 copies/μL and 508 copies/μL and 487 copies/μL and 453 copies/μL and 342 copies/μL and 352 copies/μL
Mean T47 copies/μL, Average ([5]; Hyg A 0.96 μg/ml): 319 copies/μL
Mean T47 copies/μL, experimental values ([5]; Hyg A 0.96 μg/ml): 150 copies/μL and 307 copies/μL and 435 copies/μL and 361 copies/μL and 405 copies/μL and 327 copies/μL and 299 copies/μL and 268 copies/μL
Mean T47 copies/μL, Average ([5]; Hyg A 1.92 μg/ml): 323 copies/μL
Mean T47 copies/μL, Average ([5]; Hyg A 3.84 μg/ml): 275 copies/μL
lowest concentration effective against growth (no significant difference to higher concentrations) ([5]; SS14 strain, ANOVA p<0.05): 1.92 µg/mL
MIC ([6]; ATCC33277, P. gingivalis 33277, experiment 1, read-out: MIC (μg/ml) 1): 5 µg/mL
MIC ([6]; ATCC33277, P. gingivalis 33277, experiment 2, read-out: MIC (μg/ml) 2): 5 µg/mL
